ChEMBL document CHEMBL2029327, “Synthetic menthyl α/β-(1→6)-diglucopyranosides-induced cell death in human leukemia cells is dependent on caspases” (Bioorg Med Chem Lett, 2012)
Active and inactive are the calls of the source. No cut-off for these calls is given here.

Legend:
U-937 [1] = assay: Induction of apoptosis in human U937 cells assessed as cleavage of procaspase 7 at 10 to 30 uM after 24 hrs by Western blot analysis; format: functional, cell-based
HL-60 [2] = assay: Cytotoxicity against human HL60 cells assessed as morphological changes at 10 uM after 24 hrs by inverted phase-contrast microscopic analysis; format: functional, cell-based
HL-60 [3] = assay: Induction of apoptosis in human HL60 cells assessed as increase in Bax protein level at 10 to 30 uM after 24 hrs by Western blot analysis; format: functional, cell-based
U-937 [4] = assay: Cytotoxicity against human U937 cells assessed as reduction in cell number at 10 uM after 24 hrs by inverted phase-contrast microscopic analysis; format: functional, cell-based
U-937 [5] = assay: Induction of apoptosis in human U937 cells assessed as increase in caspase 8-mediated cleavage of IETD-pNA at 30 uM after 24 hrs; format: functional, cell-based
U-937 [6] = assay: Induction of apoptosis in human U937 cells assessed as increase in apoptotic cells at 30 uM after 24 hrs by propidium iodide staining-based flow cytometric analysis relative to control; format: functional
U-937 [7] = assay: Cytotoxicity against human U937 cells after 72 hrs by MTT assay; format: functional, cell-based; details: for IC50: U-937, 72 h
U-937 [8] = assay: Induction of apoptosis in human U937 cells assessed as increase in chromatin condensation at 10 uM after 24 hrs by Hoechst staining-based flow cytometric analysis; format: functional, cell-based
U-937 [9] = assay: Induction of apoptosis in human U937 cells assessed as […] hydrolysis of chromatin at 10 uM after 24 hrs by agarose gel electrophoretic analysis; format: functional, cell-based
MOLT-3 [10] = assay: Induction of apoptosis in human MOLT3 cells assessed as increase in caspase 3/7-mediated cleavage of DEVD-pNA at 30 uM after 24 hrs relative to control; format: functional
U-937 [11] = assay: Induction of apoptosis in human U937 cells assessed as cleavage of procaspase 6 at 10 to 30 uM after 24 hrs by Western blot analysis; format: functional, cell-based
U-937 [12] = assay: Induction of apoptosis in human U937 cells assessed as decrease in Bid protein level at 10 to 30 uM after 24 hrs by Western blot analysis; format: functional, cell-based
MOLT-3 [13] = assay: Cytotoxicity against human MOLT3 cells assessed as reduction in cell number at 10 uM after 24 hrs by inverted phase-contrast microscopic analysis; format: functional, cell-based
U-937 [14] = assay: Induction of apoptosis in human U937 cells assessed as cleavage of procaspase 3 at 10 to 30 uM after 24 hrs by Western blot analysis; format: functional, cell-based
HL-60 [15] = assay: Induction of apoptosis in human HL60 cells assessed as release of cytochrome c release from mitochondria at 10 to 30 uM after 24 hrs by Western blot analysis; format: functional, cell-based
HL-60 [16] = assay: Induction of apoptosis in human HL60 cells assessed as decrease in Bid protein level at 10 to 30 uM after 24 hrs by Western blot analysis; format: functional, cell-based
MCF7 [17] = assay: Cytotoxicity against human MCF7 cells after 72 hrs by MTT assay; format: functional, cell-based; details: for IC50: MCF7, 72 h
HL-60 [18] = assay: Induction of apoptosis in human HL60 cells assessed as cleavage of procaspase 3 at 10 to 30 uM after 24 hrs by Western blot analysis; format: functional, cell-based
MOLT-3 [19] = assay: Induction of apoptosis in human MOLT3 cells assessed as increase in caspase 9-mediated cleavage of LEHD-pNA at 30 uM after 24 hrs; format: functional, cell-based
HL-60 [20] = assay: Induction of apoptosis in human HL60 cells assessed as change in Bcl-2 protein level at 10 to 30 uM after 24 hrs by Western blot analysis; format: functional, cell-based
MOLT-3 [21] = assay: Cytotoxicity against human MOLT3 cells after 72 hrs by MTT assay; format: functional, cell-based; details: for IC50: MOLT-3, 72 h
U-937 [22] = assay: Induction of apoptosis in human U937 cells assessed as change in Bcl-2 protein level at 10 to 30 uM after 24 hrs by Western blot analysis; format: functional, cell-based
U-937 [23] = assay: Induction of apoptosis in human U937 cells assessed as increase in caspase 9-mediated cleavage of LEHD-pNA at 30 uM after 24 hrs; format: functional, cell-based
U-937 [24] = assay: Induction of apoptosis in human U937 cells assessed as increase in caspase 3/7-mediated cleavage of DEVD-pNA at 30 uM after 24 hrs relative to control; format: functional
HL-60 [25] = assay: Induction of apoptosis in human HL60 cells assessed as increase in apoptotic cells at 30 uM after 24 hrs by propidium iodide staining-based flow cytometric analysis relative to control; format: functional
MOLT-3 [26] = assay: Induction of apoptosis in human MOLT3 cells assessed as increase in chromatin condensation at 10 uM after 24 hrs by Hoechst staining-based flow cytometric analysis; format: functional, cell-based
HL-60 [27] = assay: Induction of apoptosis in human HL60 cells assessed as increase in caspase 9-mediated cleavage of LEHD-pNA at 30 uM after 24 hrs; format: functional, cell-based
HL-60 [28] = assay: Induction of apoptosis in human HL60 cells assessed as decrease in ROS level up to 12 hrs by H2-DCF-DA dye-based flow cytometric analysis; format: functional, cell-based
HL-60 [29] = assay: Cytotoxicity against human HL60 cells after 72 hrs by MTT assay; format: functional, cell-based; details: for IC50: HL-60, 72 h
HL-60 [30] = assay: Induction of apoptosis in human HL60 cells assessed as cleavage of procaspase 7 at 10 to 30 uM after 24 hrs by Western blot analysis; format: functional, cell-based
HL-60 [31] = assay: Induction of apoptosis in human HL60 cells assessed as increase in caspase 3/7-mediated cleavage of DEVD-pNA at 30 uM after 24 hrs relative to control; format: functional
HL-60 [32] = assay: Induction of apoptosis in human HL60 cells assessed as cleavage of procaspase 6 at 10 to 30 uM after 24 hrs by Western blot analysis; format: functional, cell-based
U-937 [33] = assay: Induction of apoptosis in human U937 cells assessed as cleavage of procaspase 9 at 10 to 30 uM after 24 hrs by Western blot analysis; format: functional, cell-based
HL-60 [34] = assay: Induction of apoptosis in human HL60 cells assessed as increase in hypodiploid cells at 30 uM after 24 hrs by propidium iodide staining-based flow cytometric analysis in presence of 100 uM caspase inhibition Z-VAD-fmk; format: functional, cell-based
MOLT-3 [35] = assay: Induction of apoptosis in human MOLT3 cells assessed as […] hydrolysis of chromatin at 10 uM after 24 hrs by agarose gel electrophoretic analysis; format: functional, cell-based
U-937 [36] = assay: Induction of apoptosis in human U937 cells assessed as release of cytochrome c release from mitochondria at 10 to 30 uM after 24 hrs by Western blot analysis; format: functional, cell-based
U-937 [37] = assay: Induction of apoptosis in human U937 cells assessed as increase in Bax protein level at 10 to 30 uM after 24 hrs by Western blot analysis; format: functional, cell-based
HL-60 [38] = assay: Cytotoxicity against human HL60 cells assessed as reduction in cell number at 10 uM after 24 hrs by inverted phase-contrast microscopic analysis; format: functional, cell-based
MOLT-3 [39] = assay: Induction of apoptosis in human MOLT3 cells assessed as increase in caspase 8-mediated cleavage of IETD-pNA at 30 uM after 24 hrs; format: functional, cell-based
MOLT-3 [40] = assay: Cytotoxicity against human MOLT3 cells assessed as morphological changes at 10 uM after 24 hrs by inverted phase-contrast microscopic analysis; format: functional, cell-based
MCF7 [41] = assay: Cytotoxicity against human MCF7 cells assessed as morphological changes at 10 uM after 24 hrs by inverted phase-contrast microscopic analysis; format: functional, cell-based
HL-60 [42] = assay: Induction of apoptosis in human HL60 cells assessed as increase in caspase 8-mediated cleavage of IETD-pNA at 30 uM after 24 hrs; format: functional, cell-based
HL-60 [43] = assay: Induction of apoptosis in human HL60 cells assessed as increase in chromatin condensation at 10 uM after 24 hrs by Hoechst staining-based flow cytometric analysis; format: functional, cell-based
HL-60 [44] = assay: Induction of apoptosis in human HL60 cells assessed as cleavage of procaspase 9 at 10 to 30 uM after 24 hrs by Western blot analysis; format: functional, cell-based
HL-60 [45] = assay: Cell cycle in human HL60 cells at 30 uM after 24 hrs by flow cytometric analysis in presence of 100 uM caspase inhibition Z-VAD-fmk; format: functional, cell-based
HL-60 [46] = assay: Induction of apoptosis in human HL60 cells assessed as […] hydrolysis of chromatin at 10 uM after 24 hrs by agarose gel electrophoretic analysis; format: functional, cell-based
U-937 [47] = assay: Cytotoxicity against human U937 cells assessed as morphological changes at 10 uM after 24 hrs by inverted phase-contrast microscopic analysis; format: functional, cell-based
U-937 [48] = assay: Induction of apoptosis in human U937 cells assessed as increase in apoptotic cells at 10 uM after 24 hrs by propidium iodide staining-based flow cytometric analysis (reference value: 2.3 /- 0.4%); format: functional
MOLT-3 [49] = assay: Induction of apoptosis in human MOLT3 cells assessed as increase in apoptotic cells at 10 uM after 24 hrs by propidium iodide staining-based flow cytometric analysis (reference value: 3.1 /- 0.7%); format: functional

Structure (SMILES): CC(C)[C@H]1CC[C@H](C)C[C@@H]1O[C@@H]1O[C@H](CO[C@@H]2O[C@H](COC(=O)c3ccc(Br)cc3)[C@@H](OC(=O)c3ccc(Br)cc3)[C@H](O)[C@H]2O)[C@@H](O)[C@H](O)[C@H]1O
- Activity (U-937 [1]): Active
- Activity (HL-60 [2]): Active
- Activity (HL-60 [3]): Active
- Activity (U-937 [4]): Active
- Activity (U-937 [5]): Active
- Activity (U-937 [6]): 23.2%
- Activity (U-937 [7]): Dose-dependent effect
- IC50 (U-937 [7]): 14.1 µM
- Activity (U-937 [8]): Active
- Activity (U-937 [9]): Active
- fold change (FC) (MOLT-3 [10]): >7
- Activity (U-937 [11]): Active
- Activity (U-937 [12]): Active
- Activity (MOLT-3 [13]): Active
- Activity (U-937 [14]): Active
- Activity (HL-60 [15]): Active
- Activity (HL-60 [16]): Active
- Activity (MCF7 [17]): Dose-dependent effect
- IC50 (MCF7 [17]): 16 µM
- Activity (HL-60 [18]): Active
- Activity (MOLT-3 [19]): Active
- Activity (HL-60 [20]): inactive
- Activity (MOLT-3 [21]): Dose-dependent effect
- IC50 (MOLT-3 [21]): 12.6 µM
- Activity (U-937 [22]): inactive
- Activity (U-937 [23]): Active
- fold change (FC) (U-937 [24]): >7
- Activity (HL-60 [25]): 56.9%
- Activity (MOLT-3 [26]): Active
- Activity (HL-60 [27]): Active
- Activity (HL-60 [28]): inactive
- Activity (HL-60 [29]): Dose-dependent effect
- IC50 (HL-60 [29]): 14.9 µM
- Activity (HL-60 [30]): Active
- fold change (FC) (HL-60 [31]): >7
- Activity (HL-60 [32]): Active
- Activity (U-937 [33]): Active
- Activity (HL-60 [34]): inactive
- Activity (MOLT-3 [35]): Active
- Activity (U-937 [36]): Active
- Activity (U-937 [37]): Active
- Activity (HL-60 [38]): Active
- Activity (MOLT-3 [39]): Active
- Activity (MOLT-3 [40]): Active
- Activity (MCF7 [41]): Active
- Activity (HL-60 [42]): Active
- Activity (HL-60 [43]): Active
- Activity (HL-60 [44]): Active
- Activity (HL-60 [45]): inactive
- Activity (HL-60 [46]): Active
- Activity (U-937 [47]): Active

Structure (SMILES): CC(C)[C@H]1CC[C@H](C)C[C@@H]1O[C@H]1O[C@H](CO[C@@H]2O[C@H](COC(=O)c3ccc(Br)cc3)[C@@H](OC(=O)c3ccc(Br)cc3)[C@H](O)[C@H]2O)[C@@H](O)[C@H](O)[C@H]1O
- Activity (HL-60 [2]): Active
- Activity (U-937 [4]): Active
- Activity (U-937 [7]): Dose-dependent effect
- IC50 (U-937 [7]): 6.9 µM
- Activity (U-937 [8]): Active
- Activity (U-937 [9]): Active
- Activity (MOLT-3 [13]): Active
- Activity (MCF7 [17]): Dose-dependent effect
- IC50 (MCF7 [17]): 6.1 µM
- Activity (MOLT-3 [21]): Dose-dependent effect
- IC50 (MOLT-3 [21]): 5.8 µM
- Activity (MOLT-3 [26]): Active
- Activity (HL-60 [29]): Dose-dependent effect
- IC50 (HL-60 [29]): 7.3 µM
- Activity (MOLT-3 [35]): Active
- Activity (HL-60 [38]): Active
- Activity (MOLT-3 [40]): Active
- Activity (MCF7 [41]): Active
- Activity (HL-60 [43]): Active
- Activity (U-937 [48]): 46%
- Activity (HL-60 [46]): Active
- Activity (MOLT-3 [49]): 69.5%
- Activity (U-937 [47]): Active
